# Patent US11613560B2, “Bicyclic peptide ligands specific for OX40” (BicycleTx Limited, priority 2019, dated 2023)
# What was measured:
# Type in all cases: cell-based
# OX40 [1] = biological target: T1, OX40 (Homo sapiens, UniProt P43489); test: Promega OX40 cell-activity assay in co-culture with tumor cells (Nectin-4 positive 4T1-D02); settings: co-culture with Nectin-4 positive 4T1-D02 cells; compared to OX40L and non-binding control BCY12968
# T1 construct: host or cells: OX40 Jurkat cells (NF-kB luciferase reporter)
# T1 sequence (P43489 29-277): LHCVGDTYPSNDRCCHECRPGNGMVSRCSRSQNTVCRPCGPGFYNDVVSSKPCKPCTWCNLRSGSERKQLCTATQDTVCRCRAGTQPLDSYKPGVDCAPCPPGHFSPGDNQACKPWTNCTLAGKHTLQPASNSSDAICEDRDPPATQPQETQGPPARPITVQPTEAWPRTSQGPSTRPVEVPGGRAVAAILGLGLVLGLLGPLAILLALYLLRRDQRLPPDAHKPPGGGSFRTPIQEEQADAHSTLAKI
# Experimental: Promega have developed an OX40 cell-activity assay that uses NF-κB luciferase luminescence as a read-out of OX40 activation in Jurkat cells (Promega CS197704). On the day of the experiment, prepare medium by thawing FBS and adding 5% FBS to RPMI-1640. Thaw OX40 Jurkat cells in the water-bath and then add 500 μl cells to 11.5 ml pre-warmed 5 FBS RPMI-1640 medium. Add 55 μl cells/well to white cell culture plates. Harvest tumor cells from culture. 4T1 is a Nectin-4 negative murine mammary gland epithelial cancer cell and it was genetically modified to express murine Nectin-4 on the cell surface (4T1 Nectin-4 positive; clone 4T1-D02). Tumor cells were cultured to 80% confluency in vitro in RPMI1640 medium supplemented with 10% heat-inactivated FBS, 1× Penicillin/Streptomycin, 1×L-Glutamine, 20 mM HEPES and 1×NEAA (RPMI working medium). Tumor cells were trypsinized and washed two times at 1500 rpm for 5 minutes in RPMI1640 working medium prewarmed to 37° C. Count cells and resuspend at 2,000,000 cells/mL in R5 media (for 10,000 cells/well). Add 5 μL of tumour cells per well.
# Proceed to dilute agonists at concentration giving the maximum fold induction and then titrate down the amount in a sterile 96 well-plate. Prepare enough reagent for duplicate samples and then perform ⅓ dilution series or 1/10 dilution series. Include positive control OX40L trimer (AcroBiosystems, R&D systems) and negative control monomeric or non-binding peptides. Add 20 μl of agonist as duplicate samples or 5% FBS RPMI-1640 alone as background control.
# Co-incubate cells together with agonists for 6 hours at 37° C., 5% CO2. After 6 hours, thaw Bio-Glo™ and develop the assay at room-temperature. Add 80 μl Bio-Glo™ per well and incubate 5-10 min. Read luciferase signal on CLAIROStar plate-reader using the MARS program and normalize the fold induction relative to background (medium alone). Analyse data by transforming the data to x=log (X), then plot log (agonist) vs. response variable slope (4 parameters) to calculate EC50 values.
# human PBMCs = test: Human PBMC - tumor cell co-culture assay (IL-2 by HTRF); settings: anti-CD3 and anti-CD28 stimulation, 48 hours
# Experimental: 4T1, a Nectin-4 negative murine mammary gland epithelial cancer cell (4T1 Nectin-4 −ve; 4T1-Parental) and its genetically modified version expressing murine Nectin-4 on the cell surface (4T1 Nectin-4 +ve; clone 4T1-D02) were cultured to 80% confluency in vitro in RPMI1640 medium supplemented with 10% heat-inactivated FBS, 1× Penicillin/Streptomycin, 1× L-Glutamine, 20 mM HEPES and 1×NEAA (RPMI working medium). Tumor cells were trypsinized and washed two times at 1500 rpm for 5 minutes in RPMI1640 working medium prewarmed to 37° C. Four thousand tumor cells in 25 μl were plated per well in a sterile 384 well cell culture plate. Frozen human PBMCs were thawed and washed one time at 1250 rpm for 5 minutes in prewarmed RPMI1640 working medium. 20000 viable PBMCs in 50 μl RPMI1640 working medium supplemented with 250 ng/ml (2× concentration) of human anti-CD3 (clone OKT3) and 500 ng/ml (2× concentration) of human anti-CD28 (clone CD28.2) were added per respective wells containing tumor cells in 25 μl medium to obtain a […] ratio for tumor cells and PBMCs. Test compounds in DMSO were diluted in RPMI1640 working medium. An equivalent amount of DMSO was added to assay controls. […] Culture supernatant was collected at 48 hours post-treatment, and IL-2 concentrations were measured using HTRF assays (CIS Bio). Data were analyzed using GraphPad Prism.
# OX40 [2] = biological target: T1, OX40; test: Promega OX40 cell-activity assay (NF-κB luciferase read-out in OX40 Jurkat cells); settings: synthetic OX40 tetramer, FIG. 1
# Experimental: Promega have developed an OX40 cell-activity assay that uses NF-κB luciferase luminescence as a read-out of OX40 activation in Jurkat cells (Promega CS197704). On the day of the experiment, prepare medium by thawing FBS and adding 5% FBS to RPMI-1640. Thaw OX40 Jurkat cells in the water-bath and then add 500 μl cells to 11.5 ml pre-warmed 5 FBS RPMI-1640 medium. Add 60 μl cells/well to white cell culture plates. Proceed to dilute agonists at concentration giving the maximum fold induction and then titrate down the amount in a sterile 96 well-plate. […] Prepare enough reagent for duplicate samples and then perform ⅓ dilution series or 1/10 dilution series. Include positive control OX40L trimer (R&D systems #1054-OX-010) and negative control monomeric peptide. Add 20 μl of agonist as duplicate samples or 5% FBS RPMI-1640 alone as background control.
# Co-incubate cells together with agonists for 5 hours at 37° C., 5% CO2. After 5 hours, thaw Bio-Glo™ and develop the assay at room-temperature. Add 80 μl Bio-Glo™ per well and incubate 5-10 min. Read luciferase signal on CLARIOStar plate-reader using the MARS program and normalize the fold induction relative to background (medium alone). Analyse data by transforming the data to x=log (X), then plot log (agonist) vs. response variable slope (4 parameters) to calculate EC50 values.
Structure (SMILES),OX40 agonism in co-culture (OX40 [1]),IL-2 levels (human PBMCs; 4T1 cells without Nectin-4 expression),production of the cytokine IL-2 by human PBMCs (human PBMCs; Nectin-4 expressing 4T1 cells),EC50 (range in words) (OX40 [2])
CSCC[C@@H]1NC(=O)[C@@H]2CSCCC(=O)N3CN(CN(C3)C(=O)CCSC[C@H](NC(=O)CCOCCOCCOCCOCCOCCOCCOCCOCCOCCOCCOCCOCCn3cc(CCC(=O)NCCCC[C@H](NC(=O)[C@H](C)NC(=O)[C@@H]4CSCCC(=O)N5CN6CN(C5)C(=O)CCSC[C@H](NC(=O)[C@@H]5CCCN5C(=O)[C@H](CO)NC(=O)[C@H](Cc5ccc(O)cc5)NC(=O)[C@H](CC(C)C)NC(=O)[C@@H](NC(=O)[C@H](C)N)CSCCC6=O)C(=O)N[C@@H](Cc5c[nH]c6ccccc56)C(=O)N[C@@H](Cc5c[nH]cn5)C(=O)N5CCC[C@H]5C(=O)N[C@@H](CC(C)C)C(=O)N[C@@H](CC(N)=O)C(=O)N[C@@H](CC(=O)O)C(=O)N4)C(N)=O)nn3)C(=O)N3CCC[C@H]3C(=O)N[C@@H](Cc3cccc4ccccc34)C(=O)N[C@H](CC(=O)O)C(=O)N2)C(=O)CCSC[C@@H](C(N)=O)NC(=O)[C@H](Cc2c[nH]c3ccccc23)NC(=O)[C@@H]2C[C@@H](O)CN2C(=O)[C@@H]2CCCN2C(=O)[C@H]([C@@H](C)O)NC(=O)[C@H](CO)NC(=O)[C@H](Cc2c[nH]c3ccccc23)NC(=O)[C@H](CC(=O)O)NC(=O)[C@H](CCCCNC(=N)N)NC1=O [BCY12141],potent OX40 agonism,comparable to the control baseline CD3+CD28 stimulation,induced the production of the cytokine IL-2,
CC(C)C[C@@H]1NC(=O)[C@@H](NC(=O)[C@H](C)N)CSCCC(=O)N2CN3CN(C2)C(=O)CCSC[C@H](NC(=O)[C@@H]2CCCN2C(=O)[C@H](CO)NC(=O)[C@H](Cc2ccc(O)cc2)NC1=O)C(=O)N[C@@H](Cc1c[nH]c2ccccc12)C(=O)N[C@@H](Cc1c[nH]cn1)C(=O)N1CCC[C@H]1C(=O)N[C@@H](CC(C)C)C(=O)N[C@@H](CC(N)=O)C(=O)N[C@@H](CC(=O)O)C(=O)N[C@H](C(=O)N[C@@H](C)C(=O)N[C@@H](CCCCNC(=O)CCc1cn(CCOCCOCCOCCOCCOCCOCCOCCOCCOCCOCCOCCOCCOCCOCCOCCOCCOCCOCCOCCOCCOCCOCCOCCNC(=O)CCOCC(COCCC(=O)NCCOCCOCCOCCOCCOCCOCCOCCOCCOCCOCCOCCOCCOCCOCCOCCOCCOCCOCCOCCOCCOCCOCCOCCn2cc(CCC(=O)NCCCC[C@H](NC(=O)[C@H](C)NC(=O)[C@@H]4CSCCC(=O)N5CN6CN(C5)C(=O)CCSC[C@H](NC(=O)[C@@H]5CCCN5C(=O)[C@H](CO)NC(=O)[C@H](Cc5ccc(O)cc5)NC(=O)[C@H](CC(C)C)NC(=O)[C@@H](NC(=O)[C@H](C)N)CSCCC6=O)C(=O)N[C@@H](Cc5c[nH]c6ccccc56)C(=O)N[C@@H](Cc5c[nH]cn5)C(=O)N5CCC[C@H]5C(=O)N[C@@H](CC(C)C)C(=O)N[C@@H](CC(N)=O)C(=O)N[C@@H](CC(=O)O)C(=O)N4)C(N)=O)nn2)(COCCC(=O)NCCOCCOCCOCCOCCOCCOCCOCCOCCOCCOCCOCCOCCOCCOCCOCCOCCOCCOCCOCCOCCOCCOCCOCCn2cc(CCC(=O)NCCCC[C@H](NC(=O)[C@H](C)NC(=O)[C@@H]4CSCCC(=O)N5CN6CN(C5)C(=O)CCSC[C@H](NC(=O)[C@@H]5CCCN5C(=O)[C@H](CO)NC(=O)[C@H](Cc5ccc(O)cc5)NC(=O)[C@H](CC(C)C)NC(=O)[C@@H](NC(=O)[C@H](C)N)CSCCC6=O)C(=O)N[C@@H](Cc5c[nH]c6ccccc56)C(=O)N[C@@H](Cc5c[nH]cn5)C(=O)N5CCC[C@H]5C(=O)N[C@@H](CC(C)C)C(=O)N[C@@H](CC(N)=O)C(=O)N[C@@H](CC(=O)O)C(=O)N4)C(N)=O)nn2)COCCC(=O)NCCOCCOCCOCCOCCOCCOCCOCCOCCOCCOCCOCCOCCOCCOCCOCCOCCOCCOCCOCCOCCOCCOCCOCCn2cc(CCC(=O)NCCCC[C@H](NC(=O)[C@H](C)NC(=O)[C@@H]4CSCCC(=O)N5CN6CN(C5)C(=O)CCSC[C@H](NC(=O)[C@@H]5CCCN5C(=O)[C@H](CO)NC(=O)[C@H](Cc5ccc(O)cc5)NC(=O)[C@H](CC(C)C)NC(=O)[C@@H](NC(=O)[C@H](C)N)CSCCC6=O)C(=O)N[C@@H](Cc5c[nH]c6ccccc56)C(=O)N[C@@H](Cc5c[nH]cn5)C(=O)N5CCC[C@H]5C(=O)N[C@@H](CC(C)C)C(=O)N[C@@H](CC(N)=O)C(=O)N[C@@H](CC(=O)O)C(=O)N4)C(N)=O)nn2)nn1)C(N)=O)CSCCC3=O [BCY12019],,,,low nanomolar range
